Values belong to the compound of their own block, whether it stands above or below them.
Columns and labels:
[1] = target: T1, Tyrosinase (Agaricus bisporus) (UniProt O42713); experiment: Inhibition of mushroom tyrosinase at 0.19 mM using L-DOPA as substrate after 5 mins by spectrophotometric analysis relative to control
T1 sequence (whole entry): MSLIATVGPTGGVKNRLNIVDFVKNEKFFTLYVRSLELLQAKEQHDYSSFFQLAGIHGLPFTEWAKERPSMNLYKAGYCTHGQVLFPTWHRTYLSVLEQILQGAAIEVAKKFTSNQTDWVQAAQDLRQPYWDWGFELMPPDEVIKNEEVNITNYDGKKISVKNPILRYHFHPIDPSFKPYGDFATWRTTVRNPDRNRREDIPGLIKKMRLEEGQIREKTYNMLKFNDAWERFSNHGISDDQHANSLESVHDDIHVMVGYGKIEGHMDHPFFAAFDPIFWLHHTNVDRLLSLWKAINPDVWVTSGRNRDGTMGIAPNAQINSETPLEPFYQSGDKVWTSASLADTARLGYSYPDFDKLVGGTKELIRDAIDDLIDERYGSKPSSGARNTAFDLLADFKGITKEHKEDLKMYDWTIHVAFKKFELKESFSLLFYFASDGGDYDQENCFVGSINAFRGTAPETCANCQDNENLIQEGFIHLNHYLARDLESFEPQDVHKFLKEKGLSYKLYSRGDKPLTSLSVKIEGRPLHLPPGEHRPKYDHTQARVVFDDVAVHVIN

[2] = target: T1, Tyrosinase (Agaricus bisporus); experiment: Inhibition of mushroom tyrosinase at 0.11 mM using L-DOPA as substrate after 5 mins by spectrophotometric analysis relative to control
[3] = target: T1, Tyrosinase (Agaricus bisporus); experiment: Inhibition of mushroom tyrosinase at 0.18 mM using L-DOPA as substrate after 5 mins by spectrophotometric analysis relative to control

- inhibition [1]: 12.9%
SMILES: CC/C=C/c1cc(C)ccc1/C=C/CCCC(=O)O

- inhibition [2]: 18.9%
SMILES: CCCC(SSCC(NC(C)=O)C(=O)O)c1cc(C)ccc1/C=C/CCCC(=O)O (stereo not drawn)

- inhibition [3]: 27%
SMILES: CCCC(O)c1cc(C)ccc1/C=C/CCCC(=O)O (stereo not drawn)

Source: ChEMBL document CHEMBL4130475, “Lorneic Acid Analogues from an Endophytic Actinomycete” (J Nat Prod, 2017)
